The record followed here is article PMC12621175, “Scaffold Fusion and SAR Transfer with a Chemical Language Model Generates Novel Liver X Receptor Modulators” (Journal of Medicinal Chemistry, 2025).

Assay [1] deals with HepG2 cells. The assay can be described thus: lipid accumulation assay (Oil Red O staining). It counts as cell-based. The following applies: 72 h. The procedure: (§1) HepG2 cells were seeded in collagen-coated 96-well plates at a density of 10^4 cells per well and incubated for 24 h. For the lipolytic mode, the cells were pretreated for additional 24 h with 66.7 μM oleic acid and 33.3 μM palmitic acid in culture medium with 1% bovine serum albumin (BSA). The cells were then treated with DMSO (0.1%) alone or in combination with test compounds in the culture medium. After 72 h, the cells were washed with PBS (2 × 50 μL) and fixed with 10% formalin solution (50 μL) for 15 min. After removal of the fixative, the cells were washed with H2O (2 × 50 μL), followed by 50 μL of 60% iPrOH and incubated with 50 μL Oil Red O solution (0.3% in 60% iPrOH) for 10 min to stain neutral lipids. The cells were washed quickly with 50 μL of 60% iPrOH and 2 × 50 μL of PBS. Microscopic images were taken using a 40x objective on a BZ-X810 microscope (KEYENCE, Frankfurt, Germany). Images were analyzed using ImageJ software (v1.54) according to a literature method.

The test system of assay [2] is ABCA1. In words: qPCR of LXR-regulated mRNA expression in HepG2: ABCA1. The following applies: HepG2, 24 h. It counts as cell-based, human.
In assay [3] the test system is HepG2 cells. The assay can be described thus: lipolysis assay after steatosis induction with oleic and palmitic acid (Oil Red O). As to conditions: 30 μM, 72 h; HepG2 pretreated 24 h with oleic acid (66.7 μM) and palmitic acid (33.3 μM). Type of assay: cell-based. The procedure: as §1
Assay [4] has as its system Gal4-VP16. In words: Gal4-VP16 control experiment (ligand-independent transcriptional activator). The following applies: 30 μM; vs 0.1% DMSO. It counts as cell-based. From the text:
(§2) For the hybrid reporter gene assays, the previously reported Gal4-fusion receptor plasmids pFA-CMV-hRORα-LBD, pFA-CMV-hRORβ-LBD, pFA-CMV-hRORγ-LBD, pFA-CMV-hLXRα-LBD, pFA-CMV-hLXRβ-LBD, pFA-CMV-hFXR-LBD, pFA-CMV-hPXR-LBD, and pFA-CMV-hRXRα-LBD, coding for the hinge region, and LBD of the canonical isoform of the respective nuclear receptor were used. pFR-Luc (Stratagene) was used as the reporter plasmid, and pRL-SV40 (Promega) was used in all assays for the normalization of transfection efficiency and cell growth. pECE-SV40-Gal4-VP16 was a gift from Lea Sistonen (Addgene plasmid #71728). The LXR-responsive reporter ABCA1-pGL3 was used for the full-length reporter gene assay.
(§3) The day before transfection, HEK293T cells were seeded in 96-well plates (4 × 10^4 cells/well). […] Luminescence was measured with a Spark 10 M luminometer (Tecan Deutschland GmbH). […] EC50/IC50 values and the standard errors thereof were calculated with the mean fold activation values by OriginPro, Version 2025 (OriginLab Corporation, Northampton, MA, USA), fitting a dose–response curve with a variable Hill slope (Levenberg–Marquardt algorithm). […]
(§4) mediated inhibition of the LXR/RXR heterodimer. […] (c) Quantification of LXR expression on mRNA level in HEK293T and HepG2 cell lines using qRT -PCR. Expression levels were calculated according to the 2 -ΔCt method relative to GAPDH. […]

In assay [5] the target is T1, RXRα (Homo sapiens, UniProt P19793).
T1 construct: coding for the hinge region, and LBD of the canonical isoform of the respective nuclear receptor; expressed in transfected cells; host or cells: HEK293T
T1 sequence (P19793 227-458 limits assumed): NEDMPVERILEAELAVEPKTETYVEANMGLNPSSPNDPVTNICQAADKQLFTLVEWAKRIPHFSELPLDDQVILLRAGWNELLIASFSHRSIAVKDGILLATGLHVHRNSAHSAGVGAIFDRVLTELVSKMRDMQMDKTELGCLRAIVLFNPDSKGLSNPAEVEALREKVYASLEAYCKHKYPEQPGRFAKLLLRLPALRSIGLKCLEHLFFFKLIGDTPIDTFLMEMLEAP
The assay can be described thus: Gal4-RXRα hybrid reporter gene assay (control). The following applies: 30 μM; alone and in competition with bexarotene 1 μM. Type of assay: cell-based.
Excerpt: as §2, §3, §4

Assay [6] has as its target T2, FXR (NR1H4) (Homo sapiens, UniProt Q96RI1).
T2 construct: coding for the hinge region, and LBD of the canonical isoform of the respective nuclear receptor; expressed in transfected cells; host or cells: HEK293T
T2 sequence (Q96RI1 262-486 limits assumed): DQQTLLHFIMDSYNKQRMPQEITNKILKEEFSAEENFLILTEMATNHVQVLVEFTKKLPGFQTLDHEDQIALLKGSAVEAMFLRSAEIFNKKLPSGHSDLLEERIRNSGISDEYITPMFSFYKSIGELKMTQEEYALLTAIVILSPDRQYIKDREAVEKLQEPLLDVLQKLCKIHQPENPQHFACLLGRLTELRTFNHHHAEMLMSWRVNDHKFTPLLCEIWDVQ
In words: Gal4-FXR hybrid reporter gene assay (off-target profiling). It counts as cell-based. The following applies: compared with T0901317.
Excerpt: as §2
The day before transfection, HEK293T cells were seeded in 96-well plates (4 × 10^4 cells/well). Before transfection, the medium was changed to Opti-MEM without any supplements. […] Luminescence was measured with a Spark 10 M luminometer (Tecan Deutschland GmbH). […] EC50/IC50 values and the standard errors thereof were calculated with the mean fold activation values by OriginPro, Version 2025 (OriginLab Corporation, Northampton, MA, USA), fitting a dose–response curve with a variable Hill slope (Levenberg–Marquardt algorithm). […]

Entries after “also recorded” stand apart in the source; their conditions may differ.

`CS(=O)(=O)c1cccc(-c2ccc(CN(Cc3cccc(C(F)(F)F)c3Cl)CC(c3ccccc3)c3ccccc3)cc2)c1` [Compound 3, N-(2-Chloro-3-[trifluoromethyl]benzyl)-N-([3′-{methylsulfonyl}-{1,1′-biphenyl}-4-yl]methyl)-2,2-diphenylethan-1-amine]: the “effect on T0901317-induced lipogenesis” value in assay [1] (30 μM with T0901317 10 μM) is “significantly attenuated T0901317-induced lipogenesis; also recorded: mitigated T090-induced steatosis”. In addition, the “lipid accumulation (lipogenesis)” value in assay [1] (30 μM) was “did not induce lipid accumulation; also recorded: did not stimulate lipid accumulation”. Also, in assay [2] (30 μM), the “ABCA1 mRNA expression” value is recorded as “did not significantly alter the expression; also recorded: only a weak impact”. Moreover, in assay [3], the “lipolytic, antisteatotic activity” value is reported as “displayed lipolytic, antisteatotic activity; also recorded: stimulated lipolysis”. Besides, in assay [4], the “influence on Gal4-VP16-mediated luciferase reporter expression” value was “no influence”. Further, the RXR modulation result in assay [5] is “neither activated RXR nor competed with literature RXR agonist bexarotene”.
With `CCN(C(=O)c1ccccc1)c1ccc(C(O)(C(F)(F)F)C(F)(F)F)cc1` [Compound 1, N-Ethyl-N-(4-[1,1,1,3,3,3-hexafluoro-2-hydroxypropan-2-yl]phenyl)benzamide], the “lipid accumulation (lipogenesis)” value in assay [1] (10 μM, compared to T0901317 10 μM) is listed as “formation of less lipids in HepG2 cells than the structurally related full agonist T0901317; also recorded: induced lipogenesis after 72 h less efficiently”. For the same compound, the “ABCA1 mRNA expression” value in assay [2] (3 μM) is “induced”. Also, the FXR activity entry in assay [6] is “no activity; also recorded: did not affect”.
